According to ChEMBL document CHEMBL1124910, “Inhibition of human leukocyte elastase. 1. Inhibition by C-7-substituted cephalosporin tert-butyl esters” (J Med Chem, 1990):

Assays:
[1] = target: T1, Neutrophil elastase (Homo sapiens) (UniProt P08246)
T1 sequence (whole entry): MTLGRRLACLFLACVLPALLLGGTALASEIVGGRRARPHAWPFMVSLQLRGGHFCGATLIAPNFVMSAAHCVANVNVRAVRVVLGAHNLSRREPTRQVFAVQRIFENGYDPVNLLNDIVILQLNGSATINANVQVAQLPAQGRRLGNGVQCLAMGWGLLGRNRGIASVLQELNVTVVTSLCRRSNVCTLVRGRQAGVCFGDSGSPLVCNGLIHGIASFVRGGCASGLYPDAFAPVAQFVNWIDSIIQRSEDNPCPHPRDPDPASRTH
Description: Second-order rate constant (Kobs/[I]) for inactivation of Human Leukocyte Elastase was determined

Neutrophil elastase [2] = target: T2, Neutrophil elastase (Homo sapiens, UniProt P08246); experiment: Inhibitory concentration which is required to cause 50% inhibition of human leukocyte elastase (HLE) enzyme
T2 sequence (P08246 whole entry): T1 sequence (whole entry)

Neutrophil elastase [3] = target: T2, Neutrophil elastase; experiment: Inhibitory concentration which is required to cause 50% inhibition of human leukocyte elastase (HLE) enzyme; NVT indicates nonvalid test
Chymotrypsinogen A [4] = target: T3, Chymotrypsinogen A (Bos taurus, UniProt P00766); experiment: Inhibitory concentration which is required to cause 50% inhibition of alpha-chymotrypsin enzyme
Serine protease 1 [5] = target: T4, Serine protease 1 (Bos taurus, UniProt P00760); experiment: Inhibitory concentration which is required to cause 50% inhibition of Trypsin
T4 sequence (P00760 whole entry): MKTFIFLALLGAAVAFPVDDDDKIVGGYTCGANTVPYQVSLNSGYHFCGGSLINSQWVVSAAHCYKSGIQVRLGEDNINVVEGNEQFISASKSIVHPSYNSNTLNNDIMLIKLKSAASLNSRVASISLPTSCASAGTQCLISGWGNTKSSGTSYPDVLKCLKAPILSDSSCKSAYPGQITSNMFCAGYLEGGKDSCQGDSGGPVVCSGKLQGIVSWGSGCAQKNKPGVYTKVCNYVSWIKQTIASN

Pancreatic elastase [6] = target: T5, Pancreatic elastase (Sus scrofa, UniProt P08419+P00772); experiment: Inhibitory concentration which is required to cause 50% inhibition of Porcine pancreatic elastase (PPE) enzyme; type: protein assay
[7] = target: T1, Neutrophil elastase (Homo sapiens); experiment: Second-order rate constant (Kobs/[I]) for inactivation was determined
Serine protease 1 [8] = target: T4, Serine protease 1; experiment: Inhibitory concentration which is required to cause 50% inhibition of bovine trypsin (Trp)
Pancreatic elastase [9] = target: T5, Pancreatic elastase; experiment: Inhibitory concentration which is required to cause 50% inhibition of porcine pancreatic elastase (PPE); type: protein assay
Chymotrypsinogen A [10] = target: T3, Chymotrypsinogen A; experiment: Inhibitory concentration which is required to cause 50% inhibition of bovine alpha-chymotrypsin (ChT)

CC(=O)OCC1=C(C(=O)OC(C)(C)C)N2C(=O)[C@H](Oc3ccccc3)[C@H]2S(=O)(=O)C1
K obs / 1 [1]: 720 M⁻¹ s⁻¹ | IC50 (Neutrophil elastase [2]): 1 µM

CCC(CC)O[C@H]1C(=O)N2C(C(=O)OC(C)(C)C)=C(COC(C)=O)CS(=O)(=O)[C@H]12
IC50 (Neutrophil elastase [2]): > 40 µM

CO[C@H]1C(=O)N2C(C(=O)OC(C)(C)C)=C(COC(C)=O)CS[C@H]12
IC50 (Neutrophil elastase [2]): 10 µM

CCC(C)O[C@H]1C(=O)N2C(C(=O)OC(C)(C)C)=C(COC(C)=O)CS[C@H]12 (some centres undefined)
IC50 (Neutrophil elastase [2]): > 40 µM

CC(=O)OCC1=C(C(=O)OC(C)(C)C)N2C(=O)[C@H](OS(=O)(=O)c3ccc(C)cc3)[C@H]2SC1
IC50 (Neutrophil elastase [3]): Non valid test

CC(=O)OCC1=C(C(=O)OC(C)(C)C)N2C(=O)[C@H](NC(=O)Cc3cccs3)[C@H]2S(=O)(=O)C1
IC50 (Neutrophil elastase [2]): > 40 µM

CC(=O)OCC1=C(C(=O)OC(C)(C)C)N2C(=O)[C@H](OC(=O)Cc3ccccc3)[C@H]2S(=O)(=O)C1
IC50 (Chymotrypsinogen A [4]): 4 µM | IC50 (Serine protease 1 [5]): > 40 µM | IC50 (Pancreatic elastase [6]): 20 µM | IC50 (Neutrophil elastase [2]): 10 µM

CC(=O)OCC1=C(C(=O)OC(C)(C)C)N2C(=O)[C@H](OC=O)[C@H]2S(=O)(=O)C1
K obs / 1 [7]: 59000 M⁻¹ s⁻¹ | IC50 (Serine protease 1 [8]): > 40 µM | IC50 (Neutrophil elastase [2]): 0.3 µM | IC50 (Pancreatic elastase [9]): 0.4 µM

CC(=O)OCC1=C(C(=O)OC(C)(C)C)N2C(=O)[C@H](Cl)[C@H]2S(=O)(=O)C1
K obs / 1 [1]: 161000 M⁻¹ s⁻¹ | IC50 (Neutrophil elastase [2]): 0.04 µM

CO[C@H]1C(=O)N2C(C(=O)OC(C)(C)C)=C(COC(C)=O)C[S@+]([O-])[C@H]12
K obs / 1 [7]: 500 M⁻¹ s⁻¹ | IC50 (Neutrophil elastase [2]): 4 µM

CC(=O)OCC1=C(C(=O)OC(C)(C)C)N2C(=O)[C@H](OC(C)=O)[C@H]2S(=O)(=O)C1
IC50 (Chymotrypsinogen A [10]): > 40 µM | K obs / 1 [1]: 950 M⁻¹ s⁻¹ | IC50 (Serine protease 1 [5]): > 40 µM | IC50 (Neutrophil elastase [2]): 6 µM | IC50 (Pancreatic elastase [9]): 2 µM

CC(=O)OCC1=C(C(=O)OC(C)(C)C)N2C(=O)[C@H](F)[C@H]2S(=O)(=O)C1
IC50 (Neutrophil elastase [2]): 0.06 µM

CC(=O)OCC1=C(C(=O)OC(C)(C)C)N2C(=O)C[C@H]2S(=O)(=O)C1
IC50 (Neutrophil elastase [2]): > 40 µM

CNC(=O)O[C@H]1C(=O)N2C(C(=O)OC(C)(C)C)=C(COC(C)=O)CS(=O)(=O)[C@H]12
K obs / 1 [1]: 180 M⁻¹ s⁻¹ | IC50 (Neutrophil elastase [2]): 1 µM

CC(=O)OCC1=C(C(=O)OC(C)(C)C)N2C(=O)[C@H](NC(=O)C(F)(F)F)[C@H]2S(=O)(=O)C1
IC50 (Neutrophil elastase [2]): 2 µM

CC(=O)OCC1=C(C(=O)OC(C)(C)C)N2C(=O)[C@@H](N)[C@H]2SC1
IC50 (Neutrophil elastase [2]): > 40 µM

CCO[C@H]1C(=O)N2C(C(=O)OC(C)(C)C)=C(COC(C)=O)C[S+]([O-])[C@H]12 (stereo in doubt; 6b)
IC50 (Neutrophil elastase [2]): 40 µM

CCCCO[C@H]1C(=O)N2C(C(=O)OC(C)(C)C)=C(COC(C)=O)CS(=O)(=O)[C@H]12
IC50 (Neutrophil elastase [2]): > 40 µM

CCCO[C@H]1C(=O)N2C(C(=O)OC(C)(C)C)=C(COC(C)=O)CS[C@H]12
IC50 (Neutrophil elastase [2]): > 40 µM

CO[C@H]1C(=O)N2C(C(=O)OC(C)(C)C)=C(COC(C)=O)C[S@@+]([O-])[C@H]12
IC50 (Neutrophil elastase [2]): > 40 µM

CO[C@@H]1C(=O)N2C(C(=O)OC(C)(C)C)=C(COC(C)=O)CS(=O)(=O)[C@H]12
IC50 (Neutrophil elastase [2]): > 40 µM

O=C(O)[C@H]1/C(=C/CO)O[C@@H]2CC(=O)N21 [CLAVULANIC ACID]
IC50 (Neutrophil elastase [2]): < 40 µM

O=C(OCc1ccccc1)[C@H]1/C(=C/CO)O[C@@H]2CC(=O)N21
IC50 (Neutrophil elastase [2]): 4 µM

CC(=O)OCC1=C(C(=O)OC(C)(C)C)N2C(=O)[C@@H](NC(=O)Cc3cccs3)[C@H]2S(=O)(=O)C1
IC50 (Neutrophil elastase [2]): > 40 µM

CC(=O)OCC1=C(C(=O)OC(C)(C)C)N2C(=O)[C@H](OC(=O)COc3ccccc3)[C@H]2S(=O)(=O)C1
IC50 (Neutrophil elastase [2]): 6 µM

CCO[C@H]1C(=O)N2C(C(=O)OC(C)(C)C)=C(COC(C)=O)CS[C@H]12
IC50 (Neutrophil elastase [2]): > 40 µM

CC(=O)OCC1=C(C(=O)OC(C)(C)C)N2C(=O)[C@H](OC(=O)c3ccccc3)[C@H]2S(=O)(=O)C1
IC50 (Neutrophil elastase [2]): > 40 µM

CCC(=O)O[C@H]1C(=O)N2C(C(=O)OC(C)(C)C)=C(COC(C)=O)CS[C@H]12
IC50 (Neutrophil elastase [2]): 36 µM

CCO[C@H]1C(=O)N2C(C(=O)OC(C)(C)C)=C(COC(C)=O)C[S+]([O-])[C@H]12 (stereo in doubt; 7b)
IC50 (Neutrophil elastase [2]): > 40 µM

CO[C@H]1C(=O)N2C(C(=O)OC(C)(C)C)=C(COC(C)=O)CS(=O)(=O)[C@H]12
K obs / 1 [1]: 19000 M⁻¹ s⁻¹ | IC50 (Neutrophil elastase [2]): 1 µM

CCC(C)O[C@H]1C(=O)N2C(C(=O)OC(C)(C)C)=C(COC(C)=O)CS(=O)(=O)[C@H]12 (some centres undefined)
IC50 (Neutrophil elastase [2]): 28 µM

CC(=O)OCC1=C(C(=O)OC(C)(C)C)N2C(=O)[C@H](NC=O)[C@H]2S(=O)(=O)C1
K obs / 1 [7]: 1200 M⁻¹ s⁻¹ | IC50 (Neutrophil elastase [2]): 4 µM

CCCCO[C@H]1C(=O)N2C(C(=O)OC(C)(C)C)=C(COC(C)=O)CS[C@H]12
IC50 (Neutrophil elastase [2]): > 40 µM

CCCC[C@H]1C(=O)N2C(C(=O)OC(C)(C)C)=C(COC(C)=O)CS(=O)(=O)[C@H]12
IC50 (Neutrophil elastase [2]): 40 µM

CC(=O)OCC1=C(C(=O)OC(C)(C)C)N2C(=O)[C@@H](NC(=O)C(F)(F)F)[C@H]2S(=O)(=O)C1
IC50 (Neutrophil elastase [2]): > 40 µM

CC(=O)OCC1=C(C(=O)OC(C)(C)C)N2C(=O)[C@H](OCc3ccccc3)[C@H]2S(=O)(=O)C1
IC50 (Neutrophil elastase [2]): > 10 µM

CC(=O)OCC1=C(C(=O)OC(C)(C)C)N2C(=O)[C@H](Cl)[C@H]2SC1
IC50 (Neutrophil elastase [2]): 2 µM

CC(=O)OCC1=C(C(=O)OC(C)(C)C)N2C(=O)[C@H](F)[C@H]2SC1
IC50 (Neutrophil elastase [2]): 20 µM

CC(=O)OCC1=C(C(=O)OC(C)(C)C)N2C(=O)[C@H](OCCc3ccccc3)[C@H]2S(=O)(=O)C1
IC50 (Neutrophil elastase [2]): 5 µM

COC(=O)N[C@H]1C(=O)N2C(C(=O)OC(C)(C)C)=C(COC(C)=O)CS(=O)(=O)[C@H]12
K obs / 1 [7]: 1600 M⁻¹ s⁻¹ | IC50 (Neutrophil elastase [2]): 4 µM

CCC(=O)O[C@H]1C(=O)N2C(C(=O)OC(C)(C)C)=C(COC(C)=O)CS(=O)(=O)[C@H]12
K obs / 1 [1]: 80 M⁻¹ s⁻¹ | IC50 (Neutrophil elastase [2]): 10 µM
